From US6348445B1, “Biologically active peptides with reduced toxicity in animals and a method for preparing same” (priority 1992, dated 2002)
Where no end group is shown, it is not given here.

How the values were obtained:
Assay type in all cases: cell-based
[1] = system: P. aeruginosa strain ATCC 27853; conditions: ATCC 27853
Method in brief: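 Peptides serially diluted 1:2 to final 0.25–256 μg/ml in Mueller Hinton broth, inoculated with 1-5×10^5 CFUs/ml from mid-log culture. Incubated 16-20 hours at 37° C. MIC = lowest peptide concentration giving a clear well.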

[2] = system: WM 1617 human melanoma cells; conditions: 24 h
Protocol: (§1) Human lung carcinoma cells, A-549 (ATCC), and human breast carcinoma cells, MDA-435 (from Sandoz), were grown in Ham's F12K medium (GIBCO-BRL) supplemented with […] fetal bovine serum. Human chronic myelogenous leukemia cells, K-562 (ATCC), were maintained in RPMI 1640 medium (GIBCO-BRL) supplemented with 10% fetal bovine serum. Human melanoma cell line, WM 1617 (from the Wistar Institute), was maintained in 2% Tumor media.
(§2) Cytotoxicity assays were performed on the cell lines described above using CytoLite (Packard Instrument Company) following the manufacture's instruction. Briefly, 2×10^4cells/well were seeded into black, 96-well ViewPlates (Packard Instrument Company) in 100 μl/well growth medium. Ser. dilutions of Magainin peptides were then added into the cells and the plates incubated for 24 hours in a humidified 5% CO2 atmosphere at 37° C. Following incubation, 25 μl/well of CytoLite activator solution was added followed by 125 μl/well of amplifier solution. Luminescence was measured on TopCount Microplate Scintillation and Luminescence counter (Packard Instrument Company) using a 1 second count time in SPC (single photon counting) mode at 25 ° C. All assays were performed in triplicate. The peptides tested in this assay were MSI-78(SEQ ID NO: 154 —NH2), MSI-1858(SEQ ID NO: 154 —NH2 Methane Sulfonate), MSI-344(SEQ ID NO: 154 —OH) and MSI-1857(SEQ ID NO: 154 —OH Methane Sulfonate). The results of these assays are shown in FIGS. 2-9 with the corresponding IC50 values in Table VIII. In all cases the activity of the methane sulfonated peptide was as good or better than the parent peptide as indicated by both the survival curves and the IC50 values.

[3] = system: K-562 human chronic myelogenous leukemia cells; conditions: 24 h
Protocol: as §1, §2

[4] = system: MDA-435 human breast carcinoma cells; conditions: 24 h
Protocol: as §1, §2

[5] = system: A-549 human lung carcinoma cells; conditions: 24 h
Protocol: as §1, §2

S. aureus ATCC 29213 = conditions: ATCC 29213

Sequence: GIGKFLKKAKKFGKAFVKILKK [MSI-344]
- MIC P. aeruginosa ATCC 27853 [1]: 16 µg/mL
- IC50 [2]: 5 µM
- IC50 [3]: 20 µM
- IC50 [4]: 8 µM
- IC50 [5]: 10 µM
- MIC S. aureus ATCC 29213 (S. aureus ATCC 29213): 128 µg/mL
